Source: patent publication US10183155B2, “Implantable devices and methods for evaluation of active agents” (Kibur Medical, Inc., priority 2011, dated 2019)
Where “and” joins values, the source holds several entries; their conditions need not be identical. Equal values may be shown once.

How the values were obtained:
[1] = tested on: PC3 tumors; assay: Implantable device assay: apoptosis (cleaved caspase 3) after device delivery in PC3 tumors; format: in vivo, mice; settings: for apoptotic index (AI): device-delivery, 24 hours post implantation
Experimental: (§1) Doxorubicin was loaded into a microwell in the implantable device. The device was implanted into tumor tissue. This was repeated for three different murine human cell tumor models (BT474, PC3, A375). After implantation for 20 hours, the device and surrounding tissue was removed, and embedded in acrylic for cross-sectioning and histopathological analysis.
(§2) Fluorescent imaging techniques were used on sample cross-sections to determine the doxorubicin concentration and diffusion profile within the tissue surrounding the device. Standard histopathological techniques, such as but not limited to, immunochemical techniques, can be used to measure a desired characteristic within the surrounding tissue to determine effectiveness of a compound. In this instance, cleaved caspase 3 antibodies were used to detect cells undergoing apoptosis.
(§3) Murine A375, BT474, or PC3 tumor models were used to determine whether the device measurement of local microdose response is a satisfactory predictor of a systemic response in different tumor models. Doxorubicin was placed within the microwells of implantable devices. The devices were implanted into A375, BT474, or PC3 tumors on mice. Apoptosis, as measured by cleaved caspase 3 expression, was used to evaluate drug efficacy at 24 hours post implantation or systemic dosing.
The implantable device assay was tested in murine tumor models (A375 and PC3) for its ability to predict the response of tumors to several other cytotoxic and targeted anti-cancer agents. Vemurafenib is an enzyme inhibitor that specifically targets the BRAF V600E mutation. A375 tumors have this mutation. […] Response to vemurafenib was measured by intratumor apoptotic response using the implantable device assay.
Sunitinib was loaded into microwells in the implantable device that were preloaded with doxorubicin. The device was then implanted into PC3 tumors. The device and surrounding tissue was removed 24 hours later and apoptosis was evaluated by cleaved caspase 3 expression using standard immunohistochemical assays.

[2] = tested on: A375 tumors; assay: Local tumor apoptosis (cleaved caspase 3) after systemic dosing in A375 tumors; format: in vivo, mice; settings: systemic dosing 8 mg/kg, 24 hours
Experimental: (§4) To compare the efficacy of device delivered doxorubicin to efficacy achieved with systemic delivery, mice bearing A375 or PC3 tumors were systemically administered an 8 mg/kg dose of doxorubicin. Apoptosis, as measured by cleaved caspase 3 expression, was used to evaluate drug efficacy at 24 hours post implantation or systemic dosing.

[3] = tested on: A375 tumors; assay: Implantable device assay: apoptosis (cleaved caspase 3) after device delivery in A375 tumors; format: in vivo, mice
Experimental: as §1, §2
Efficacy of doxorubicin at different concentration gradients within the tissue was quantified using a two-step analysis. […]
Second, the effect of the drug on a measurable characteristic in each concentration region is determined. In this example, the amount of cells undergoing apoptosis, as determined by cleaved caspase 3 antibody binding, was evaluated in each doxorubicin concentration region. Efficacy of the doxorubicin released from the microwell is determined by antibody staining of tissue sections divided into regions corresponding to local compound exposure.
Varying percentages (1% and 5% by weight) of doxorubicin was dissolved in PEG having a molecular weight of 1000 or 1450. […] After 20 hours, the device and surrounding tissue was removed and analyzed for doxorubicin concentration and cleaved caspase 3 expression, as previously described.
Murine A375, BT474, or PC3 tumor models were used to determine whether the device measurement of local microdose response is a satisfactory predictor of a systemic response in different tumor models. […] Apoptosis, as measured by cleaved caspase 3 expression, was used to evaluate drug efficacy at 24 hours post implantation or systemic dosing. […]

[4] = tested on: survivin; assay: Survivin protein expression by immunohistochemistry around device in BT474 tumor; format: in vivo; settings: 20 hour exposure, region closest to the microwell
Experimental: (§5) Doxorubicin was loaded into microwells in the device and implanted within a BT474 tumor. After 20 hours, the device and surrounding tissue was removed. Protein expression of cleaved caspase 3 and Poly(ADP-ribose) polymerase (PARP) was evaluated by immunohistochemical analysis. These biomarkers are indicators of apoptosis. Protein expression of Ki67 and survivin was evaluated by immunohistochemical analysis. Ki67 is a biomarker for monitoring reduced cell proliferation rates. Survivin is a biomarker for monitoring reduced inhibition of apoptosis.
(§6) Effect of 20 hour doxorubicin exposure on the expression of the biomarkers was determined as described in Example 4. However, here four concentration gradient regions of approximately 100 μm were determined and evaluated.

[5] = tested on: MDA-MB231 tumors; assay: Implantable device assay: apoptosis (cleaved caspase 3) after device delivery in MDA-MB231 tumors; format: in vivo, mice
Experimental: Lapatinib was loaded into microwells in the implantable device that were preloaded with doxorubicin. The device was then implanted into MDA-MB231 tumors. The device and surrounding tissue was removed 24 hours later and apoptosis was evaluated by cleaved caspase 3 expression using standard immunohistochemical assays.

[6] = tested on: BT474 tumors; assay: Implantable device assay: apoptosis (cleaved caspase 3) after device delivery in BT474 tumors; format: in vivo, mice; settings: for apoptotic index (AI): device-delivery, 24 hours post implantation; for increase of apoptosis by addition to microwells preloaded with doxorubicin: 24 hours, vs doxorubicin alone
Experimental: as §1, §2, §3
Sunitinib or lapatinib was loaded into microwells in the implantable device that were preloaded with doxorubicin. The device was then implanted into BT474 tumors. The device and surrounding tissue was removed 24 hours later and apoptosis was evaluated by cleaved caspase 3 expression using standard immunohistochemical assays.

[7] = Intratumor concentration of doxorubicin after systemic administration; format: in vivo; settings: systemic 8 mg/kg, BT474 bearing mice
Experimental: (§7) Doxorubicin was administered systemically at 8 mg/kg to BT474 bearing mice. Intratumor concentration of doxorubicin was analyzed by standard immunohistochemical and fluorescence techniques previously described and standard in the art. Doxorubicin was loaded into microwells in the device. The device was implanted in a BT474 tumor as in Example 7. After 20 hours, the device and surrounding tissue was excised and doxorubicin concentration in the surrounding tumor tissue was analyzed.

[8] = tested on: PC3 tumors; assay: Local tumor apoptosis (cleaved caspase 3) after systemic dosing in PC3 tumors; format: in vivo, mice; settings: systemic dosing 8 mg/kg, 24 hours
Experimental: as §4

[9] = tested on: Ki67; assay: Ki67 protein expression by immunohistochemistry around device in BT474 tumor; format: in vivo; settings: 20 hour exposure, region closest to the microwell
Experimental: as §5, §6

[10] = Doxorubicin concentration in tumor tissue surrounding the implanted device (fluorescent imaging); format: in vivo, mice; settings: mouse, pure doxorubicin in microwell, 20 hours post implantation
Text: as §2
Varying percentages (1% and 5% by weight) of doxorubicin was dissolved in PEG having a molecular weight of 1000 or 1450. Pure powder doxorubicin and the PEG-doxorubicin formulations were loaded into microwells in the device. The device was implanted into tumors. After 20 hours, the device and surrounding tissue was removed and analyzed for doxorubicin concentration and cleaved caspase 3 expression, as previously described.
Microwells were loaded with pure doxorubicin and the device was implanted into tumor tissue. The device and surrounding tissue was removed at varying times post-implantation. The concentration of doxorubicin in the surrounding tissue was evaluated using immunohistochemical techniques and fluorescent imaging.
as §7

[11] = device-delivery, single agent, MDA-MB231 tumors

COc1cccc2c1C(=O)c1c(O)c3c(c(O)c1C2=O)C[C@@](O)(C(=O)CO)C[C@@H]3O[C@H]1C[C@H](N)[C@H](O)[C@H](C)O1 [doxorubicin]
apoptotic index (AI) [1]: 6% | local tumor apoptosis, apoptotic index (AI) [2]: 34.9% | number of cleaved caspase 3 positive cells as percent area of DAB staining ([3]; 20 hours, A375 compared with BT474 and PC3, approximately 100-250 μm from the microwell): greatest number of cells to undergo apoptosis | apoptotic index (AI) ([3]; device-delivery, A375 tumors, 24 hours post implantation): 55% | Survivin expression [4]: undetectable | apoptotic index (AI) [5, 11]: 7.4% | apoptotic index (AI) [6]: 18% | intratumor doxorubicin concentration, areas of high concentration [7]: 8 to 13 mg/kg | intratumor doxorubicin concentration, areas of low concentration [7]: 3 to 7 mg/kg | local tumor apoptosis, apoptotic index (AI) [8]: 8.7% | Ki67 expression [9]: undetectable levels | concentration at 20 h ([10]; 0-130 μm from the microwell): 15000 to 20000 ng/g | concentration at 20 h ([10]; approximately 130-200 μm from the microwell): 8000 to 13000 ng/g | concentration at 20 h ([10]; approximately 200-300 μm from the microwell): 3000 to 7000 ng/g

Nc1ccn([C@@H]2O[C@H](CO)[C@@H](O)C2(F)F)c(=O)n1 [gemcitabine]
apoptotic index (AI) [1]: 12.5% | apoptotic index (AI) [5, 11]: 21.8% | apoptotic index (AI) [6]: 2.0% and 2.6%

CS(=O)(=O)CCNCc1ccc(-c2ccc3ncnc(Nc4ccc(OCc5cccc(F)c5)c(Cl)c4)c3c2)o1 [lapatinib]
elevation of apoptotic response by addition to doxorubicin in the microwells ([5]; MDA-MB-231 tumors, 24 hours, vs doxorubicin alone): 140% | apoptotic index (AI) ([5]; lapatinib added to doxorubicin in the microwells, MDA-MB-231 tumors, 24 hours): 17.5% | increase of apoptosis by addition to microwells preloaded with doxorubicin [6]: 355%

CCN(CC)CCNC(=O)c1c(C)[nH]c(/C=C2\C(=O)Nc3ccc(F)cc32)c1C [sunitinib]
increase of apoptosis by addition to microwells preloaded with doxorubicin ([1]; 24 hours, vs doxorubicin alone): 330% | increase of apoptosis by addition to microwells preloaded with doxorubicin [6]: 66%

CC[C@@]1(O)C(=O)OCc2c1cc1n(c2=O)Cc2cc3c(CN(C)C)c(O)ccc3nc2-1 [topotecan]
apoptotic index (AI) [1]: 6.3% | apoptotic index (AI) [6]: 2.2%

CCCS(=O)(=O)Nc1ccc(F)c(C(=O)c2c[nH]c3ncc(-c4ccc(Cl)cc4)cc23)c1F [vemurafenib]
intratumor apoptotic response greater in A375 model as compared to PC3 model ([3]; device-delivery, A375 (BRAF V600E) vs PC3): 250%
